Measurements reported in US5049637A, “1,2,3,4,10,14b-hexahydrodibenzo[c,f]pyrazino-[1,2-a]azepino derivatives and 10-aza, 10-oxa and 10-thia analogues” (Monash University, priority 1987, dated 1991).
Structures can show the parent of a compound that is named as a salt.

Columns and labels:
[1] = test system: isolated guinea pig ileum (KCl-induced contractions); assay: Block of KCl-induced contraction of the isolated guinea-pig ileum; details: block of contractions of isolated guinea pig ileum induced by KCl
Procedure: (§1) Compounds according to formula I were tested for their ability to block contractions of the isolated guinea pig ileum induced by KCl, carbachol, or histamine at a concentration of 10^-7 M. Ileum preparations were prepared according to standard methodology. The concentrations shown are the minimum required to show activity.

[2] = test system: isolated guinea pig ileum (carbachol-induced contractions); assay: Block of carbachol-induced contraction of the isolated guinea-pig ileum; details: block of contractions of isolated guinea pig ileum induced by carbachol
Procedure: as §1

[3] = test system: isolated guinea pig ileum (histamine-induced contractions); assay: Block of histamine-induced contraction of the isolated guinea-pig ileum; details: for minimal effective concentration: Cavia porcellus, isolated guinea pig ileum, histamine 10^-7 M, read-out: Effect on Histamine: minimum concentration required to show activity; for Effect on Histamine: block of contractions of isolated guinea pig ileum induced by histamine at 10^-7 M
Procedure: (§2) The compound of Example 2 was found in low concentrations to inhibit contractions of the guinea-pig isolated ileum and rat isolated stomach strip caused by histamine and 5-hydroxytryptamine respectively. […] Concomitantly, the depressor effects of histamine were blocked, as were the pressor effects of 5-hydroxytryptamine for over 30 minutes. The pressor effects of 5-hydroxytryptamine in anaesthetised and pithed rats were inhibited by intravenous doses of 0.3-1.0 mg/kg body weight. Slightly higher doses reduced the bradycardia and the depressor response (the Bezold-Jarisch reflex mediated by 5-HT3 receptors) to 5-hydroxytryptamine in anaesthetised rats. The drug inhibited oedema in the rat paw caused by intraplantar 5-hydroxytryptamine. […] In mice it inhibited diarrhoea caused by L-5-hydroxytryptophan. In guinea pigs, intravenous doses of 0.03 mg/kg and above reduced the bronchoconstrictor effects of histamine and 5-hydroxytryptamine.
as §1

[4] = test system: bronchoconstrictor effects of histamine and 5-hydroxytryptamine; assay: Histamine and 5-hydroxytryptamine induced bronchoconstriction in guinea pigs; assay type: in vivo, guinea pig; details: Cavia porcellus, intravenous, read-out: Intravenous dose reducing histamine and 5-hydroxytryptamine bronchoconstriction
Procedure: as §2
(§3) In cats, the effects of the ganglion stimulant McNeil -A-343 and histamine were reduced. Following intravenous injection into guinea-pigs, […] reduced histamine and 5-hydroxytryptamine induced broncho-constriction. Concentrations of 1 μg/ml or greater relaxed the isolated rat uterus in vitro.
(§4) The compound of Example 4 when injected into rats at intravenous doses of 0.3 mg/kg or greater reduced the pressor effects of 5-hydroxytryptamine and also the depressor effects of histamine. In cats, the effect of histamine was reduced after these doses also.
(§5) Thus doses of 1 mg/kg given intraperitoneally attenuated the facilitation of spinal reflex activity caused by p-chloroamphetamine, and also the facilitation of spinal reflexes induced by fenfluramine in spinal and decerebrate rats. […] The drug in doses of 10 and 20 mg/kg intraperitoneally and in doses of 20 mg/kg by mouth attenuated morphine-induced catalepsy. We conclude therefore that this drug is an orally active drug with central actions, particularly affecting serotonergic mechanisms, but has no effect in vitro (Table 1). […] Thus it was found after intravenous doses of 0.03 mg/kg to reduce histamine and 5-hydroxytryptamine bronchoconstriction in the guinea pig.

[5] = test system: central nervous system (morphine induced catalepsy); assay: Morphine induced catalepsy in the rat; assay type: in vivo; details: for Action in morphine induced catalepsy test: rat, mianserin in low doses
Procedure: as §5

[6] = test system: spinal reflex activity (serotonergic mechanisms); assay: Facilitation of spinal reflexes by p-chloroamphetamine, fenfluramine or clonidine in spinal and decerebrate rats; assay type: in vivo, rat
Procedure: as §5

[7] = test system: central nervous system (spinal flexor reflex); assay: Spinal flexor reflex in the rat; assay type: in vivo; details: mianserin in low doses
[8] = test system: central nervous system (L-5-hydroxytryptophan-induced head twitch); assay: L-5-hydroxytryptophan-induced head twitch in the mouse; assay type: in vivo; details: mianserin in low doses
[9] = Penetration into the central nervous system; assay type: in vivo; details: for Ability to penetrate into the CNS: in vivo
[10] = test system: effects of histamine and 5-hydroxytryptamine on blood pressure and heart rate; assay: Effects of histamine and 5-hydroxytryptamine on blood pressure and heart rate in the chloral-anaesthetized rat; assay type: in vivo
[11] = test system: arterial blood pressure and heart rate; assay: Arterial blood pressure, heart rate and pressor responses to noradrenaline, sympathetic nerve stimulation and tyramine after intravenous injection into rats; assay type: in vivo, rat; details: for minimal effective dose: intravenous
[12] = test system: pressor effects of 5-hydroxytryptamine; assay: Pressor effects of 5-hydroxytryptamine in rats; assay type: in vivo, rat
Procedure: as §2, §3, §4

[13] = test system: depressor effects of histamine; assay: Effects of histamine in cats; assay type: in vivo, cat; details: intravenous
Procedure: as §2, §3, §4

[14] = test system: effects of the ganglion stimulant McNeil -A-343; assay: Effects of the ganglion stimulant McNeil-A-343 in cats; assay type: in vivo, cat
Procedure: as §3

isolated rat uterus = assay: Isolated rat uterus in vitro; details: Rattus norvegicus, read-out: Concentration relaxing the isolated rat uterus
[15] = test system: rat isolated stomach strip (5-hydroxytryptamine-induced contractions); assay: Contractions of rat isolated stomach strip caused by 5-hydroxytryptamine
Procedure: as §2

[16] = test system: arterial blood pressure and heart rate; assay: Arterial blood pressure, heart rate and pressor responses to noradrenaline, sympathetic nerve stimulation and tyramine after intravenous injection into cats; assay type: in vivo, cat
[17] = test system: pressor effects of 5-hydroxytryptamine; assay: Pressor effects of 5-hydroxytryptamine in cats; assay type: in vivo, cat; details: intravenous 0.1 mg/kg or greater
Procedure: as §2

[18] = test system: depressor effects of histamine; assay: Depressor effects of histamine in rats; assay type: in vivo, rat; details: intravenous 0.1 mg/kg or greater
Procedure: as §2, §4

[19] = test system: 5-HT3 receptors (Bezold-Jarisch reflex); assay: Bradycardia and depressor response (Bezold-Jarisch reflex) to 5-hydroxytryptamine in anaesthetised rats; assay type: in vivo, rat; details: doses slightly higher than 0.3-1.0 mg/kg i.v.
Procedure: as §2

[20] = test system: rat paw oedema caused by 5-hydroxytryptamine; assay: Oedema in the rat paw caused by intraplantar 5-hydroxytryptamine; assay type: in vivo
Procedure: as §2

[21] = test system: diarrhoea caused by L-5-hydroxytryptophan; assay: Diarrhoea caused by L-5-hydroxytryptophan in mice; assay type: in vivo, mouse
Procedure: as §2

conscious cats = assay: Behavioural changes and acute toxicity in the cat; assay type: in vivo
[22] = rats, intravenous 0.1 mg/kg or greater
[23] = intravenous 0.1 mg/kg or greater

NC(=O)N1CCN2c3ccccc3Cc3ccccc3C2C1 (centres unmarked) [Example 5, 2-Carboxamido-1,2,3,4,10,14b-hexahydrodibenzo [c,f]pyrazino[1,2-a]azepine]
Effect on KCl [1]: - (no effect) | Effect on Carbachol [2]: - (no effect) | minimal effective concentration [3]: 0.01 to 0.1 µM | Effect on Histamine [3]: ++ | minimal effective dose [4]: 0.03 mg/kg | Morphine-induced catalepsy ([5]; 20 mg/kg by mouth): attenuated | Morphine-induced catalepsy ([5]; 10 and 20 mg/kg intraperitoneally): attenuated | Facilitation of spinal reflex activity caused by p-chloroamphetamine ([6]; 1 mg/kg intraperitoneally): attenuated | Facilitation of spinal reflexes induced by fenfluramine ([6]; 1 mg/kg intraperitoneally, spinal and decerebrate rats): attenuated | Facilitation of spinal reflexes caused by clonidine ([6]; at these dose levels (1 mg/kg intraperitoneally)): did not antagonise

N=C(NCCOc1ccccc1)N1CCN2c3ccccc3Cc3ccccc3C2C1 (centres unmarked) [Example 9, 2-(N-2-Phenoxyethylcarboxamidino)-1,2,3,4,10,14b-hexahydrodibenzo[c,f]pyrazino[1,2-a]azepine hydrochloride]
Effect on KCl [1]: - (no effect) | Effect on Carbachol [2]: - (no effect) | minimal effective concentration [3]: 0.01 to 0.1 µM | Effect on Histamine [3]: ++

CN1CCN2c3ccccc3Cc3ccccc3C2C1 (centres unmarked) [mianserin, 1,2,3,4,10,14b-hexahydro-2-methyldibenzo [c,f]pyrazino[1,2-a]azepine, reference compound]
Action in spinal flexor reflex test [7]: effective | Action in morphine induced catalepsy test [5]: effective | Action in L-5-hydroxytryptophan-induced head twitch test [8]: effective

NC(=O)CN1CCN2c3ccccc3Cc3ccccc3C2C1 (centres unmarked) [Example 13, 2-(Carboxamidomethyl)-1,2,3,4,10,14b-hexahydrodibenzo [c,f]pyrazino[1,2-a]azepine hydrochloride]
Effect on KCl [1]: - (no effect) | Effect on Carbachol [2]: - (no effect) | minimal effective concentration [3]: 0.01 to 0.1 µM | Effect on Histamine [3]: ++ | Ability to penetrate into the CNS [9]: able to penetrate into the CNS

NC(=O)CCN1CCN2c3ccccc3Cc3ccccc3C2C1 (centres unmarked) [Example 14, 2-(2-Carboxamidoethyl)-1,2,3,4,10,14b-hexahydrodibenzo[c,f]pyrazino[1,2-a]azepine]
Effect on KCl [1]: - (no effect) | Effect on Carbachol [2]: - (no effect) | minimal effective concentration [3]: 0.01 to 0.1 µM | Effect on Histamine [3]: ++ | Ability to penetrate into the CNS [9]: able to penetrate into the CNS

CCNC(=N)N1CCN2c3ccccc3Cc3ccccc3C2C1 (centres unmarked) [Example 11, 2-(N-Ethylcarboxamidino)-1,2,3,4,10,14b-hexahydrodibenzo[c,f]pyrazino[1,2-a]azepine hydrochloride]
Effect on KCl [1]: - (no effect) | Effect on Carbachol [2]: - (no effect) | minimal effective concentration [3]: 0.01 to 0.1 µM | Effect on Histamine [3]: ++ | Block of effect on heart rate of both histamine and 5-hydroxytryptamine [10]: not | Effect on blood pressure of both histamine and 5-hydroxytryptamine [10]: complete block

CCNC(=O)N1CCN2c3ccccc3Cc3ccccc3C2C1 (centres unmarked) [Example 10, 2-(N-Ethylcarboxamido)-1,2,3,4,10,14b-hexahydrodibenzo[c,f]pyrazino[1,2-a]azepine]
Effect on KCl [1]: - (no effect) | Effect on Carbachol [2]: - (no effect) | minimal effective concentration [3]: 0.1 µM | Effect on Histamine [3]: + (block)

c1ccc2c(c1)Cc1ccccc1N1CCN(C3=NCCN3)CC21 (centres unmarked) [Example 3, 2-(2-Imidazolino)-1,2,3,4,10,14b-hexahydrodibenzo [c,f]pyrazino[1,2-a]azepine p-toluenesulphonate]
Effect on KCl [1]: - (no effect) | Effect on Carbachol [2]: - (no effect) | minimal effective concentration [3]: 0.01 µM | Effect on Histamine [3]: ++ | minimal effective dose ([11]; rat, read-out: Intravenous dose causing rises in arterial blood pressure): ≥ 0.1 mg/kg | minimal effective dose ([12]; rat, intravenous, read-out: Intravenous dose depressing/reducing the pressor responses to 5-hydroxytryptamine): ≥ 0.1 mg/kg | Effects of histamine (depressor) in cats [13]: reduced | minimal effective dose [4]: 0.01 mg/kg | Effects of the ganglion stimulant McNeil -A-343 [14]: reduced | minimal effective concentration (isolated rat uterus): ≥ 1 µg/mL

CCNC(=NC#N)N1CCN2c3ccccc3Cc3ccccc3C2C1 (centres unmarked) [Example 7, 2-(N-Cyano-N'-ethyl-carboxamidino)-1,2,3,4,10,14b-hexahydrodibenzo[c,f]pyrazino[1,2-a]azepine]
Effect on KCl [1]: - (no effect) | Effect on Carbachol [2]: - (no effect) | minimal effective concentration [3]: 0.01 to 0.1 µM | Effect on Histamine [3]: ++

CCNC(=S)N1CCN2c3ccccc3Cc3ccccc3C2C1 (centres unmarked) [Example 12, 2-(N-Ethylthiocarboxamido)-1,2,3,4,10,14b-hexahydrodibenzo[c,f]pyrazino[1,2-a]azepine]
Effect on KCl [1]: - (no effect) | Effect on Carbachol [2]: - (no effect) | minimal effective concentration [3]: 0.01 to 0.1 µM | Effect on Histamine [3]: ++

N=C(N)N1CCN2c3ccccc3Cc3ccccc3C2C1 (centres unmarked) [Example 2, 2-Carboxamidino-1,2,3,4,10,14b-hexahydrodibenzo [c,f]pyrazino[1,2-a]azepineHydrochloride]
Effect on Carbachol [2]: - (no effect) | minimal effective concentration [3]: 0.01 µM | Effect on Histamine [3]: ++ | Nature of the antagonism to histamine ([3]; guinea-pig isolated ileum, relatively resistant to washing): persistent and non-competitive | Contractions of the guinea-pig isolated ileum caused by histamine ([3]; low concentrations): inhibit | Contractions of rat isolated stomach strip caused by 5-hydroxytryptamine ([15]; low concentrations): inhibit | Nature of the antagonism to 5-hydroxytryptamine ([15]; rat isolated stomach strip, relatively resistant to washing): persistent and non-competitive | minimal effective dose ([11]; Rattus norvegicus, rats, read-out: Intravenous dose causing long-lasting rises in arterial blood pressure and heart rate): ≥ 0.1 mg/kg | Pressor responses of the indirectly acting sympathomimetic agent tyramine [11, 22]: blockade | Pressor responses to noradrenaline and sympathetic nerve stimulation [11, 22]: potentiation | minimal effective dose ([16]; Felis catus, intravenous, read-out: Intravenous dose causing long-lasting rises in arterial blood pressure and heart rate): ≥ 0.1 mg/kg | Pressor responses of the indirectly acting sympathomimetic agent tyramine [16, 23]: blockade | Pressor responses to noradrenaline and sympathetic nerve stimulation [16, 23]: potentiation | Duration of block of the pressor effects of 5-hydroxytryptamine [12, 22]: over 30 minutes | Duration of block of the pressor effects of 5-hydroxytryptamine [17]: over 30 minutes | Depressor effects of histamine [18]: blocked | Effects of histamine (depressor) in cats [13]: blocked | Bradycardia and depressor response (Bezold-Jarisch reflex) to 5-hydroxytryptamine [19]: reduced | Oedema in the rat paw caused by intraplantar 5-hydroxytryptamine ([20]; oral and subcutaneous): inhibited | Oral absorption indicated by ratio of oral to subcutaneous dose ([20]; rat paw oedema): relatively good oral absorption | Diarrhoea caused by L-5-hydroxytryptophan [21]: inhibited | minimal effective dose [4]: ≥ 0.03 mg/kg | Action in spinal flexor reflex test [7]: failed to demonstrate any inhibitory or other actions | Action in morphine induced catalepsy test [5]: failed to demonstrate any inhibitory or other actions | Action in L-5-hydroxytryptophan-induced head twitch test [8]: failed to demonstrate any inhibitory or other actions | Action on the central nervous system: behavioural changes in the cat (conscious cats; cat): failed to demonstrate any inhibitory or other actions | Overt behavioural changes or acute toxicity (conscious cats; conscious cats, relatively large subcutaneous doses): No overt behavioural changes or acute toxicity | Penetration into the central nervous system ([9]; concluded from four CNS test situations): does not penetrate into the central nervous system
